# Data published in patent US20200308299A1, “ANTI-GPC-1 ANTIBODY” (National University Corporation Kochi University, priority 2017, published 2020).
# Non-standard residues stand in square brackets, D forms with d. Residues, ends and D or L forms follow the SMILES beside them. *: point of attachment. Dolaproine = CO[C@@H]([C@@H]1CCCN1)[C@@H](C)C(=O)O; Dil = CC[C@H](C)[C@H](NC)[C@@H](CC(=O)O)OC; X1 = C[C@@H](N*)[C@@H](O)c1ccccc1; NMeV = CN[C@H](C(=O)O)C(C)C
# System: TE14 cells
# Experiment: Anticancer agent sensitivity of TE14 cells (CellTiter-Glo cell viability)
# Format: cell-based
# Settings: cultured 6 days
# Method: 2000 TE14 cells were added to a 96-well plate at 90 μl. The cells were cultured overnight at 37° C. in a 5% CO2 incubator. The next day, 10 μl of an anticancer agent concentrated 10-fold relative to the final concentration was added to each well, so that the total amount was 100 μl. The cells were cultured for 6 days at 37° C. in a 5% CO2 incubator. The cell viability was measured by using a CellTiter-Glo Luminescent Cell Viability Assay reagent to detect the amount of ATP. RPMI1640+10% FBS+1% PS was used as the medium. MMAE (model number: 474645-27-7, ALB Technology) and MMAF (model number: 745017-94-1, ALB Technology) were used as the anticancer agent.
row,SMILES,IC50
1,"CC[C@H](C)[C@@H]([C@@H](CC(=O)N1CCC[C@H]1[C@H](OC)[C@@H](C)C(=O)N[C@H](C)[C@@H](O)c1ccccc1)OC)N(C)C(=O)[C@@H](NC(=O)[C@@H](NC)C(C)C)C(C)C [MMAE, monomethyl auristatin-E] (H-[NMeV]V[Dil][Dolaproine]-X1)",0.926 nM
2,"CC[C@H](C)[C@@H]([C@@H](CC(=O)N1CCC[C@H]1[C@H](OC)[C@@H](C)C(=O)N[C@@H](Cc1ccccc1)C(=O)O)OC)N(C)C(=O)[C@@H](NC(=O)[C@@H](NC)C(C)C)C(C)C [MMAF, monomethyl auristatin-F] (H-[NMeV]V[Dil][Dolaproine]F-OH)",26.8 nM
